Reference: patent US20160058712A1, “3-HYDROXYPTEROSTILBENE AND THERAPEUTIC APPLICATIONS THEREOF” (priority 2014, published 2016)

Key:
[1] = tested on: COLO 205 cells; assay: Mitochondrial membrane potential by DiOC6 flow cytometry; format: cell-based, human; conditions: COLO 205, 50 μM, 15 min; shifted from 224
Experimental: (§1) For mitochondrial membrane potential and ROS production, COLO 205 cells were treated as described under Example III for 15 min, and then DiOC6 [3,3′-dihexyloxacarbocyanine iodide] (40 nM) or DCFHDA [2′,7′-dichlorodihydrofluorescein diacetate] (20 μM) was added to the medium for a further 30 min at 37° C. After washing with PBS, the fluorescence intensity was determined by FAC Scan cytometry. The DiOC6 fluorescence intensity shifted to the left from 224 to 117 and 75 in pterostilbene and 3-HPT induced apoptotic COLO 205 cells, respectively. […] The role of ROS in the induction of apoptosis is well recognized. […] The imbalance of ROS concentrations could play an important role as an early mediator in 3-HPT induced apoptosis.

[2] = tested on: COLO 205 cells; assay: MTT cell viability assay, COLO 205; format: cell-based; conditions: Homo sapiens, COLO205, MTT, 24 h
Experimental: (§2) The human colon cancer cell lines COLO 205, HCT116 and HT29 were purchased from the American Type Culture Collection (Rockville, Md.). Cell lines were grown in RPMI1640 supplemented with 10% heat inactivated fetal bovine serum (GIBCO BRL, Grand Island, N.Y.), 100 units/mL of penicillin, 100 μg/mL of streptomycin), 2 mM L-glutamine (GIBCO BRL, Grand Island, N.Y.), and were kept at 37° C. in a humidified 5% CO2 incubator. Pterostilbene and 3-HPT were dissolved in dimethyl sulfoxide (DMSO, as final concentration of 0.05%). Cells were treated with 0.05% DMSO as vehicle control.
(§3) Cell viability was assayed by 3(4,5-dimethylthiazol-2-yl)-2,5-diphenyltetrazolium bromide (MTT). Briefly. COLO 205, HCT116 and HT29 cells were plated at a density of 2×10^2 cells/mL into 96 well plates. After overnight growth, cells were treated with a series of concentrations of pterostilbene or 3-hydroxypterostilbene for 24 h. The final concentrations of DMSO in the culture medium were <0.05%. At the end of treatment, 0.2% MTT was added and cells were incubated for a further 4 h. Cell viability was determined by scanning with an ELISA reader with a 570 nm filter.

[3] = tested on: COLO 205 cells; assay: ROS production by DCFHDA flow cytometry; format: cell-based, human; conditions: COLO 205, 50 μM, 15 min; from 114
Experimental: as §1

[4] = tested on: COLO 205 cells; assay: Flow cytometry analysis of subG1 cell population (PI staining); format: cell-based, human; conditions: 24 h
Experimental: For subG1 cell population analysis, COLO 205 cells (2×10^5 cells/mL) were cultured in 12 well and treatment with various concentrations of pterostilbene or 3-hydroxypterostilbene for 24 h. The cells were then harvested, washed with PBS, re-suspended in 200 μL of PBS, and fixed in 800 μL of iced 100% ethanol at […]. After being left to stand overnight, the cell pellets were collected by centrifugation, re-suspended in 1 mL of hypotonic buffer (0.5% Triton X100 in PBS and 0.5 μg/mL RNase) with PI (50 μg/mL) and incubated at 37° C. in the dark for 30 min. Fluorescence emitted from the PIDNA complex was quantitated after excitation of the fluorescent dye by FACScan cytometry (Becton Dickinson, San Jose, Calif.). […] The results indicated a higher apoptotic potential of 3-hydroxypterostilbene for COLO 205 cells.

[5] = tested on: HT-29 cells; assay: MTT cell viability assay, HT29; format: cell-based; conditions: Homo sapiens; HT-29, MTT, 24 h
Experimental: as §2, §3

[6] = tested on: COLO 205 xenograft tumors; assay: COLO 205 xenograft model; format: in vivo; conditions: 10 mg/kg/d i.p., 15 days, nude mice
Experimental: Male Balb/c nude mice at 3-4 weeks old (weighing 16-18 g) were obtained from the BioLASCO Experimental Animal Center (BioLASCO, Taipei, Taiwan). All animals were maintained in pathogen free sterile isolators and in a controlled atmosphere (25±1° C. at 50% relative humidity) and with a 12 h light-12 h dark cycle according to institutional guidelines. Animals were fed with standard AIN76 diet and all food, water, caging, and bedding were sterilized prior to use. Animals had free access to food and water at all times. Food cups were replenished with fresh diet every day. All animal experimental protocol used in this study was approved by Institutional Animal Care and Use Committee of the National Kaohsiung Marine University (IACUC, NKMU, #099AAA902, Validity dates: Jan. 1, 2009 Jul. 31, 2012). After 1 week of acclimation, colon cancer COLO 205 cells (5×10^6) in 0.2 mL PBS were injected subcutaneously between the scapulae of each nude mouse. After transplantation, tumor size was measured using calipers, and the tumor volume was estimated according to the following formula: tumor volume […]=L×W2/2, where L is the length and W is the width. Once tumors reached a mean size of […], mice were randomly divided into three groups (6 animals/group). Mice were i.p. injection with pterostilbene or 3-hydroxypterostilbene (10 mg/kg/d, respectively) for 15 days, while control animals were received injection of corn oil. The diet intake and body weight of each animal was monitored every day. The tumor volume was assessed and recorded every 5 days using caliper measurements. After 15 days, the mice were sacrificed by […] and the liver, kidneys, spleen and solid tumors were excised immediately and weighed. Average tumor volume and tumor weight of each group were represent the mean±standard deviation (SD). Average tumor volumes were recorded during the treatment and average tumor weights were measured at the end of experiment. Six samples were analyzed in each group, and values represent the mean±SD. *P<0.05 and **P<0.01, compared with control group. #P<0.05, compared with pterostilbene treated group. The tumor tissues were cut into several portion for western blot analysis or stored at −80° C. […] Furthermore, in mice receiving these treatment regimens, no gross signs of toxicity were observed during visible inspections of general appearance and microscopic examinations of individual organs. • 2.

[7] = tested on: HCT-116 cells; assay: MTT cell viability assay, HCT116; format: cell-based; conditions: Homo sapiens; HCT-116, MTT, 24 h
Experimental: as §2, §3

[8] = tested on: PC-3 (Human prostate cancer cell line); assay: MTT cell viability assay, PC-3; format: cell-based; conditions: Homo sapiens; PC-3, MTT
Experimental: as §3
The MTT reaction explained in Para 0040 was also used to assess the cell viability of human prostate cancer cells (PC-3) in the presence of pterostilbene and 3-hydroxypterostilbene. The results (FIG. 1) are represented in Table II.

COc1cc(/C=C/c2ccc(O)cc2)cc(OC)c1 [Pterostilbene, pterostilbene]
DiOC6 fluorescence intensity (mitochondrial membrane potential) [1]: 117
IC50 [2]: 33.4 ± 0.2 µM
mean DCFHDA fluorescence intensity (ROS) [3]: 141
percentage of apoptotic COLO 205 cells (subG1) ([4]; 5 μM): 6.2%
percentage of apoptotic COLO 205 cells (subG1) ([4]; 10 μM): 8.4%
percentage of apoptotic COLO 205 cells (subG1) ([4]; 25 μM): 10.2%
percentage of apoptotic COLO 205 cells (subG1) ([4]; 50 μM): 14.8%
IC50 [5]: 80.6 ± 3.3 µM
side effects or toxicity (body and organ weights, gross signs) [6]: no noticeable side effects or toxicity
IC50 [7]: 47.1 ± 0.6 µM
IC50 [8]: > 20 µM
